Read-outs that look alike come from different tables or passages of the source.
Legend:
[1] = target: SOS1 and KRAS G12C (Homo sapiens (Human), UniProt Q07889); test: KRAS::SOS1 AlphaScreen binding assay (KRAS G12C); details: average of at least two measurements
[2] = target: SOS1 and KRAS G12D (Homo sapiens (Human), UniProt Q07889); test: KRAS::SOS1 AlphaScreen binding assay (KRAS G12D); details: average of at least two measurements
[3] = test system: ERK phosphorylation in NCI-H358 SOS2 KO cells (KRAS G12C); test: Erk phosphorylation assay; format: cell-based, human; details: EGF stimulated, average of at least two measurements, read-out: pERK IC50
Summary of the method: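 NCI-H358 SOS2 KO cells (KRAS G12C) in DMEM/2% FBS were pretreated 50 min with compound, then stimulated with EGF (approx. 8 ng/mL) for 10-15 min. pERK1/2 (Thr202/Tyr204) measured in lysates by AlphaLISA SureFire; IC50 from variable-slope fit, averaged over at least two measurements.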

[4] = target: P450 3A4 (Homo sapiens (Human), UniProt P08684); test: Cytochrome P450 isoenzyme inhibition assay (P450 3A4, midazolam); format: in vitro ADME; details: human liver microsomes, Midazolam as substrate; read-out: CYP3A4 inhibition IC50
Sequence of P450 3A4 (P08684 whole entry): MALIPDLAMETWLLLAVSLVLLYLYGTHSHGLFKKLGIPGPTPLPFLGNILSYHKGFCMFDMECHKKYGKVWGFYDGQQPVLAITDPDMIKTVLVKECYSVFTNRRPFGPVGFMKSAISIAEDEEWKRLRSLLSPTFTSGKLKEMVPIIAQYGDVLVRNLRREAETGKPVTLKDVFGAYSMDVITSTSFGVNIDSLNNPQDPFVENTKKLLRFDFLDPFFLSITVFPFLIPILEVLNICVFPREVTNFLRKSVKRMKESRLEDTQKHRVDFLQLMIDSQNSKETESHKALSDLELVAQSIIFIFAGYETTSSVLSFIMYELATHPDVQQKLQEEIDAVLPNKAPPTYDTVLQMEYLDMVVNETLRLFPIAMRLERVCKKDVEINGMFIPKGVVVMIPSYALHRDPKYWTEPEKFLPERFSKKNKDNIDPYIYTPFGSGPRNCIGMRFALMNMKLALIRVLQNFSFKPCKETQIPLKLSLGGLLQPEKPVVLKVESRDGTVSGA
Summary of the method: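 Midazolam (5 μM) hydroxylation by human liver microsomes (0.1 mg/ml) in 0.1 M TRIS with 5 mM MgCl2, started with 1 mM NADPH. Five compound concentrations in duplicate, e.g. top 50 μM with 1:4 dilutions. Metabolite quantified by LC-MS/MS against internal standard; IC50 from inhibition relative to no-compound control.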

[5] = target: CYP3A4 (Homo sapiens (Human), UniProt P08684); test: Mechanism-based inhibition of CYP3A4 assay (MBI 3A4); format: in vitro ADME; details: human liver microsomes, midazolam substrate, hydroxy-midazolam formation after 30 min preincubation relative to 0 min; for inhibition at 30 min: human, probe midazolam 15 μM (hydroxy-midazolam formation), read-out: MBI inhibition % ctrl. [%] with MDZ
Sequence of CYP3A4 (P08684 whole entry): as above
Summary of the method: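 Human liver microsomes (0.2 mg/mL) were preincubated with compound at 0, 5 or 25 μM plus 1 mM NADPH for 0, 10 or 30 min, then diluted 1:10 and incubated 10 min with 15 μM midazolam. Hydroxy-midazolam was measured by LC/MS-MS; readout is formation after 30 min relative to 0 min preincubation (%).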

[6] = test system: human hepatocytes; test: Metabolic stability in human hepatocytes; details: 1 μM test compound, 50% human serum, percentage of liver blood flow
Experimental: The metabolic degradation of a test compound is performed with hepatocytes in suspension. After recovery from cryopreservation, human hepatocytes are diluted in Dulbecco's modified eagle medium (supplemented with 3.5 μg glucagon/500 mL, 2.5 mg insulin/500 mL, 3.75 mg hydrocortisone/500 mL, 50% human serum) to obtain a final cell density of 1.0×10^6 cells/mL. Following a preincubation in a cell culture incubator (37° C., 10% CO2), test compound dissolved in DMSO is mixed with the hepatocyte suspension, resulting in a final test compound concentration of 1 μM and a final DMSO concentration of 0.05%.
The cell suspension is incubated at 37° C. (cell culture incubator, horizontal shaker) and samples are removed from the incubation after 0, 0.5, 1, 2, 4 and 6 hours. Samples are quenched with acetonitrile (containing internal standard) and pelleted by centrifugation. The supernatant is transferred to a deep-well plate and prepared for analysis of decline of parent compound by HPLC-MS/MS.
The percentage of remaining test compound is calculated using the peak area ratio (test compound/internal standard) of each incubation time point relative to the time point 0 peak area ratio. The log-transformed data are plotted versus incubation time, and the absolute value of the slope obtained by linear regression analysis is used to estimate in vitro half-life (T1/2).
CL_[sequence]_IN VIVO[mL/min/kg]=(CL_[sequence][μL/min/10^6cells]×hepatocellularity[10^6cells/g liver]×liver factor[g/kg body weight])/1000
Hepatic in vivo blood clearance (CL) is predicted according to the well-stirred liver model considering an average liver blood flow (QH) of 20.7 mL/min/kg:
CL[mL/min/kg]=CL_[sequence]_IN VIVO[mL/min/kg]×hepatic blood flow[mL/min/kg]/(CL_[sequence]_IN VIVO[mL/min/kg]+hepatic blood flow[mL/min/kg])
Results are expressed as percentage of hepatic blood flow:
QH[%]=CL[mL/min/kg]/hepatic blood flow[mL/min/kg])

[7] = Homo sapiens, NCI-H358, NCI-H358 SOS2 KO cells

Sequence of SOS1 and KRAS G12C (Q07889 564-1049, stated change not applied): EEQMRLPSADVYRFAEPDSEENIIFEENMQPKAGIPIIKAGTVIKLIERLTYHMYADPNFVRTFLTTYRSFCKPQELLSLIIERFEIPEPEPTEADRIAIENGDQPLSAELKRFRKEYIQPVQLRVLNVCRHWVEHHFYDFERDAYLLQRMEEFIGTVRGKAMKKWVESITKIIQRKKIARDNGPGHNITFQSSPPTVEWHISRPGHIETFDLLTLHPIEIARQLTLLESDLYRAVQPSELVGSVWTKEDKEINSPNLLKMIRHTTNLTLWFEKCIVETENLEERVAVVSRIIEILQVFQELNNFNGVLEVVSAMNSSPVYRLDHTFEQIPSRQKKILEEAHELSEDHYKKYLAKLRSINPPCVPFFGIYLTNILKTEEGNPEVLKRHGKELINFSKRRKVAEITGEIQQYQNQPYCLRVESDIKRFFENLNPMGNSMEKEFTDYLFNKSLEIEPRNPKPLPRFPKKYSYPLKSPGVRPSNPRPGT
Sequence of SOS1 and KRAS G12D (Q07889 564-1049, stated change not applied): as above

SMILES	IC50 [1]	IC50 [2]	IC50 [3, 7]	IC50 [4]	inhibition at 30 min [5]	Hepatic clearance - QH[%] in human hepatocytes [6]	IC50 ([3]; NCI-H358 SOS2 KO cells)	MBI inhibition % ctrl. [%] with MDZ [5]
C[C@H](CO)NC1CCN(c2cc(C(=O)N[C@H](C)c3cccc(C(F)(F)F)c3F)cn3ncnc23)CC1 [Example E54]	39 nM	31 nM	186 nM	> 50000 nM	85%	12%		
C[C@@H](NC(=O)c1cc(N2CCC3(CCCN3C)CC2)c2ncnn2c1)c1cccc(C(F)F)c1F [Example E20]	44 nM	33 nM	146 nM	> 50000 nM	94%	19%		
C[C@@H](NC(=O)c1cc(N2CCC(N(C)CC(C)(C)O)CC2)c2ncnn2c1)c1cccc(C(F)F)c1F [Example E7]	50 nM	43 nM	246 nM	> 50000 nM	106%	31%		
C[C@@H](NC(=O)c1cc(N2CCC(O)(C3CCCN3)CC2)c2ncnn2c1)c1cccc(C(F)F)c1F (single isomer, unassigned) [Example E38a]	66 nM	45 nM	112 nM	> 50000 nM	94%	10%		
C[C@@H](NC(=O)c1cc(N2CCC3(CCCN3)CC2)c2ncnn2c1)c1cccc(C(F)(F)F)c1F [Example E34]	42 nM	34 nM	62 nM	> 50000 nM	106%	10%		
C[C@@H](NC(=O)c1cc([C@H]2CC[C@H](N3CCC[C@@H](O)C3)CC2)c2ncnn2c1)c1cccc(C(F)F)c1F [Example E58]	32 nM	32 nM	122 nM	> 50000 nM	96%	15%		
C[C@@H](NC(=O)c1cc(N2CCC(N(C)C)CC2)c2ncnn2c1)c1cccc(C(F)(F)F)c1F [Example E35]	57 nM	48 nM	160 nM	> 50000 nM	94%	6%		
C[C@@H](NC(=O)c1cc(N2CCC(N3CCC[C@@H]3CO)CC2)c2ncnn2c1)c1cccc(C(F)F)c1F [Example E1]	33 nM	30 nM	118 nM	> 50000 nM	98%	17%		
C[C@@H](NC(=O)c1cc(N2CCC(N3CC[C@@H](O)C3)CC2)c2ncnn2c1)c1cccc(C(F)(F)F)c1F [Example E57]	65 nM	52 nM	149 nM	> 50000 nM	106%	15%		
C[C@@H](NC(=O)c1cc([C@H]2CC[C@H](N3CCC[C@@H](O)C3)CC2)c2ncnn2c1)c1cccc(C(F)(F)F)c1F [Example E68]	36 nM	27 nM	116 nM	> 50000 nM	91%	12%		
C[C@@H](NC(=O)c1cc(N2CCC(N3CCC[C@H](O)C3)CC2)c2ncnn2c1)c1cccc(C(F)(F)F)c1F [Example E44]	63 nM	42 nM	58 nM	> 50000 nM	95%	16%		
C[C@@H](NC(=O)c1cc(N2CCC(NC3COCC3O)CC2)c2ncnn2c1)c1cccc(C(F)(F)F)c1F (single isomer, unassigned) [Example trans-E42b]	37 nM	36 nM		> 50000 nM		16%	153 nM	94%
C[C@@H](NC(=O)c1cc(N2CCC3(CCCCN3)CC2)c2ncnn2c1)c1cccc(C(F)(F)F)c1F [Example E45]	33 nM	30 nM	139 nM	> 50000 nM	97%	<4%		
